Where two headings read alike, the source gives them in different places.
Legend:
[1] = tested on: MIC-1; experiment: MIC-1 levels in plasma by ELISA; assay type: in vivo, human
Method: MIC-1 protein concentrations were measured in plasma samples using an analytically validated enzyme-linked immunosorbent assay (Quantikine® Human GDF-15 immunoassay). pERK levels were determined by evaluating median value changes in response to ex vivo stimulation with or without phorbol myristate acetate (PMA) over time in whole-blood samples (CD 45^+ and lymphocyte populations) by flow cytometry (BD FACSCanto™ II instrument). Stimulated pERK levels were calculated as percentage (PMA-dimethylsulphoxide [DMSO])/DMSO).

[2] = Pharmacokinetics of SAR405838 (whole-blood concentrations) in combination; assay type: in vivo, human; settings: for AUC(0-t) / Cmax / half-life / Tmax: human, whole blood, oral; for AUC(0-t): read-out: SAR405838 AUC0–24, mean ± SD; for Cmax: read-out: SAR405838 Cmax, mean ± SD; for half-life: read-out: SAR405838 t1/2 (converted); for Tmax: read-out: SAR405838 tmax, median (range)
Description: Blood samples were collected on Days 1 (for pimasertib only), 2, 3, 8 and 15 of Cycle 1, on Days 1 and 2 of Cycle 2, and on Day 1 of Cycles 3 and 4, to determine the whole-blood and plasma concentrations of SAR405838 and pimasertib, respectively.

[3] = cited from earlier work
[4] = Safety assessments: adverse events (NCI-CTCAE v4.03), laboratory abnormalities; assay type: in vivo, human; settings: of 26 treated patients, in combination
Method: Safety was assessed by the evaluation of AEs, DLTs, changes in vital signs, ECOG PS, physical examinations,12-lead electrocardiograms, determination of LVEF, ophthalmological examinations and clinical laboratory tests (including haematology, coagulation, blood chemistry and urinalysis).

[5] = DL1 SAR405838 200 mg QD + pimasertib 45 mg BID, C1D2
[6] = DL1 SAR405838 200 mg QD + pimasertib 45 mg BID, C2D1
[7] = DL2a SAR405838 200 mg QD + pimasertib 60 mg QD, C1D2
[8] = DL2a SAR405838 200 mg QD + pimasertib 60 mg QD, C2D1
[9] = DL2b SAR405838 300 mg QD + pimasertib 45 mg BID, C1D2
[10] = DL2b SAR405838 300 mg QD + pimasertib 45 mg BID, C2D1
[11] = DL3a SAR405838 300 mg QD + pimasertib 60 mg QD, C1D2
[12] = DL3a SAR405838 300 mg QD + pimasertib 60 mg QD, C2D1

CC(C)(C)C[C@@H]1N[C@@H](C(=O)N[C@H]2CC[C@H](O)CC2)[C@H](c2cccc(Cl)c2F)[C@]12C(=O)Nc1cc(Cl)ccc12 [SAR405838]
Time of peak MIC-1 elevation ([1]; C1D2 and C2D1): 6 h | Greatest increase in MIC-1 in the DL1 cohort ([1]; patient with confirmed PR (endometrial tumour)): 8.8 fold | MIC-1 elevation, mean vs baseline ([1]; plasma, all patients at C1D2 and C2D1): 3.5+ /− 0.8 fold | PK in combination compared with PK as monotherapy ([2]; SAR405838 and pimasertib administered in combination): similar | Exposure change with dose increase (50%) ([2]; between DL1/DL2a (SAR405838 200 mg) and DL2b/DL3a (SAR405838 300 mg)): did not result in SAR405838 exposure increase | AUC(0-t) [2, 5]: 19300 ng·h/mL | Cmax [2, 5]: 1570 ± 876 ng/mL | half-life [2, 5]: 16.1 ± 7.75 h | Tmax [2, 5]: 2 h | AUC(0-t) [2, 6]: 14600 ng·h/mL | Cmax [2, 6]: 1250 ± 668 ng/mL | half-life [2, 6]: 10.8 h | Tmax [2, 6]: 1.8 h | AUC(0-t) [2, 7]: 20800 ng·h/mL | Cmax [2, 7]: 1500 ± 634 ng/mL | half-life [2, 7]: 8.86 h | Tmax [2, 7]: 2 h | AUC(0-t) [2, 8]: 15600 ng·h/mL | Cmax [2, 8]: 1050 ± 581 ng/mL | half-life [2, 8]: 10 h | Tmax [2, 8]: 2.8 h | AUC(0-t) [2, 9]: 16300 ng·h/mL | Cmax [2, 9]: 1100 ± 547 ng/mL | half-life [2, 9]: 15.5 ± 4.33 h | Tmax [2, 9]: 3 h | AUC(0-t) [2, 10]: 15000 ng·h/mL | Cmax [2, 10]: 1100 ± 361 ng/mL | half-life [2, 10]: 13.4 ± 2.38 h | Tmax [2, 10]: 1.5 h | AUC(0-t) [2, 11]: 21400 ng·h/mL | Cmax [2, 11]: 1490 ± 939 ng/mL | half-life [2, 11]: 13.3 ± 4.94 h | Tmax [2, 11]: 4 h | AUC(0-t) [2, 12]: 21200 ng·h/mL | Cmax [2, 12]: 1440 ± 583 ng/mL | half-life [2, 12]: 14.9 ± 11.1 h | Tmax [2, 12]: 2 h | Main dose-limiting toxicity, monotherapy [3]: thrombocytopenia | MTD and recommended phase II dose, monotherapy ([3]; once daily (QD)): 300 mg | Patients with dose modification, reduction or omission [4]: 17 patients

Reference: PMC6354023, “A phase I study of the HDM2 antagonist SAR405838 combined with the MEK inhibitor pimasertib in patients with advanced solid tumours” (British Journal of Cancer, 2018)
